Results as given in patent US12102648B2, “Orally-bioavailable nucleoside analogs” (priority 2021, dated 2024).
Read-outs that look alike come from different tables or passages of the source.

Experiment: in vitro
Format: in vitro ADME
Conditions: human
Method in brief: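 Permeability measured in both directions across 19-day Caco-2 layers with TEER above 600 […], incubated at 37° C without shaking; donor and receiver sampled at 10 and 90 min for LC/MS/MS. Derived values: Papp (cm/s), efflux ratio, recovery.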

[1] = Caco-2 monolayer, apical to basolateral, 90-minute incubation, read-out: Papp, A-B
[2] = Caco-2 monolayer, basolateral to apical, 90-minute incubation, read-out: Papp, B-A
[3] = Caco-2 monolayer, ER>2 indicates potential efflux transporter substrate, read-out: ER (efflux ratio)

| SMILES | Papp A→B at 90 min (Caco-2) [×10⁻⁶ cm/s] | Papp B→A at 90 min (Caco-2) [×10⁻⁶ cm/s] | efflux ratio at 90 min (Caco-2) | Papp A→B at 90 min [1] [×10⁻⁶ cm/s] | Papp B→A at 90 min [2] [×10⁻⁶ cm/s] | efflux ratio at 90 min [3] |
| --- | --- | --- | --- | --- | --- | --- |
| CC(C)CC(=O)OC[C@H]1O[C@@](C#N)(c2ccc3c(N)ncnn23)[C@H](O)[C@@H]1OCOC(=O)C(C)(C)C [Compound 24, ((2R,3S,4R,5R)-5-(4-aminopyrrolo[2,1-f][1,2,4]triazin-7-yl)-5-cyano-4-hydroxy-3-((pivaloyloxy)methoxy)tetrahydrofuran-2-yl)methyl 3-methylbutanoate] | 8.1 | 3.6 | 0.44 | – | – | – |
| CC(C)C(=O)OC[C@H]1O[C@@](C#N)(c2ccc3c(NC(=O)[C@@H](N)C(C)C)ncnn23)[C@H](O)[C@@H]1O [Compound 116, [(2R,3S,4R,5R)-5-{4-[(2S)-2-amino-3-methylbutanamido]pyrrolo[2,1-f][1,2,4]triazin-7-yl}-5-cyano-3,4-dihydroxyoxolan-2-yl]methyl 2-methylpropanoate] | 0.15 | 1.2 | 7.9 | – | – | – |
| CNc1nc(N)nc2c1ncn2[C@@H]1O[C@H](COC(=O)C(C)C)[C@@H](OC(=O)CC(C)C)[C@@]1(C)F [Compound 187, (2R,3R,4R,5R)-5-(2-amino-6-(methylamino)-9H-purin-9-yl)-4-fluoro-2-((isobutyryloxy)methyl)-4-methyltetrahydrofuran-3-yl 3-methylbutanoate] | 11 | 2.4 | 0.22 | – | – | – |
| CNc1nc(N)nc2c1ncn2[C@@H]1O[C@H](COC(C)=O)[C@@H](OC(=O)CC(C)C)[C@@]1(C)F [Compound 186, (2R,3R,4R,5R)-2-(acetoxymethyl)-5-(2-amino-6-(methylamino)-9H-purin-9-yl)-4-fluoro-4-methyltetrahydrofuran-3-yl 3-methylbutanoate] | 19 | 7.2 | 0.38 | – | – | – |
| N#C[C@@]1(c2ccc3c(N)ncnn23)O[C@H](COC(=O)C[C@H]2CC[C@H](N)CC2)[C@@H](O)[C@H]1O [Compound 266, ((2R,3S,4R,5R)-5-(4-aminopyrrolo[2,1-f][1,2,4]triazin-7-yl)-5-cyano-3,4-dihydroxytetrahydrofuran-2-yl)methyl 2-((1r,4R)-4-aminocyclohexyl)acetate] | 0.19 | 0.38 | 2 | – | – | – |
| CC(C)C(=O)O[C@H]1[C@@H](O)[C@](C#N)(c2ccc3c(N)ncnn23)O[C@@H]1COC(=O)Cc1ccccc1 [Compound 46, (2R,3S,4R,5R)-5-(4-aminopyrrolo[2,1-f][1,2,4]triazin-7-yl)-5-cyano-4-hydroxy-2-((2-phenylacetoxy)methyl)tetrahydrofuran-3-yl isobutyrate] | – | – | – | 2.7 | 4.8 | 1.8 |
| CNc1nc(N)nc2c1ncn2[C@@H]1O[C@H](COC(=O)C(C)C)[C@@H](OC(=O)Cc2ccccc2)[C@@]1(C)F [Compound 211, ((2R,3R,4R,5R)-5-(2-amino-6-(methylamino)-9H-purin-9-yl)-4-fluoro-4-methyl-3-(2-phenylacetoxy)tetrahydrofuran-2-yl)methyl isobutyrate] | – | – | – | 6.2 | 4.8 | 0.8 |
| CCC(=O)OC[C@H]1O[C@@](C#N)(c2ccc3c(NC(=O)c4ccccc4)ncnn23)[C@H](O)[C@@H]1O [Compound 107, ((2R,3S,4R,5R)-5-(4-benzamidopyrrolo[2,1-f][1,2,4]triazin-7-yl)-5-cyano-3,4-dihydroxytetrahydrofuran-2-yl)methyl propionate] | – | – | – | 2.1 | 7.5 | 3.6 |
| CC(C)[C@H](N)C(=O)OC[C@H]1O[C@@](C#N)(c2ccc3c(N)ncnn23)[C@H](O)[C@@H]1OC(=O)CC1CCCCC1 [Compound 34, ((2R,3S,4R,5R)-5-(4-aminopyrrolo[2,1-f][1,2,4]triazin-7-yl)-5-cyano-3-(2-cyclohexylacetoxy)-4-hydroxytetrahydrofuran-2-yl)methyl L-valinate] | 1.6 | 4.8 | 3 | – | – | – |
| CC(C)C(=O)OC[C@H]1O[C@@](C#N)(c2ccc3c(N)ncnn23)[C@H](O)[C@@H]1O [Compound 14, ((2R,3S,4R,5R)-5-(4-aminopyrrolo[2,1-f][1,2,4]triazin-7-yl)-5-cyano-3,4-dihydroxytetrahydrofuran-2-yl)methyl isobutyrate] | 2.3 | 2.2 | 1 | – | – | – |
| CCCCC(=O)Nc1ncnn2c([C@]3(C#N)O[C@H](CO)[C@@H](O)[C@H]3O)ccc12 [Compound 264, N-(7-((2R,3R,4S,5R)-2-cyano-3,4-dihydroxy-5-(hydroxymethyl)tetrahydrofuran-2-yl)pyrrolo[2,1-f][1,2,4]triazin-4-yl)pentanamide] | 0.03 | 0.53 | 20 | – | – | – |
| CCC(=O)OC[C@H]1O[C@@](C#N)(c2ccc3c(N)ncnn23)[C@H](O)[C@@H]1OC(=O)CC [Compound 71] | – | – | – | 0.94 | 2.3 | 2.4 |
| C[C@@H](C(=O)OC[C@H]1O[C@@](C#N)(c2ccc3c(N)ncnn23)[C@H](O)[C@@H]1O)C1CCCCC1 [Compound 275, ((2R,3S,4R,5R)-5-(4-aminopyrrolo[2,1-f][1,2,4]triazin-7-yl)-5-cyano-3,4-dihydroxytetrahydrofuran-2-yl)methyl (R)-2-cyclohexylpropanoate] | 11 | 16 | 1.6 | – | – | – |
| CC(C)C(=O)Nc1ncnn2c([C@]3(C#N)O[C@H](COC(=O)Cc4ccccc4)[C@@H](OC(=O)[C@@H](N)C(C)C)[C@H]3O)ccc12 [Compound 347, (2R,3S,4R,5R)-5-cyano-4-hydroxy-5-(4-isobutyramidopyrrolo[2,1-f][1,2,4]triazin-7-yl)-2-((2-phenylacetoxy)methyl)tetrahydrofuran-3-yl L-valinate] | – | – | – | 7 | 17 | 2.4 |
| CCC(=O)OC[C@H]1O[C@@](C#N)(c2ccc3c(N)ncnn23)[C@H](O)[C@@H]1OC(=O)[C@@H](N)C(C)C [Compound 67, (2R,3S,4R,5R)-5-{4-aminopyrrolo[2,1-f][1,2,4]triazin-7-yl}-5-cyano-4-hydroxy-2-[(propanoyloxy)methyl]oxolan-3-yl(2S)-2-amino-3-methylbutanoate] | 0.3 | 0.1 | 0.33 | – | – | – |
| CC(C)C(=O)Nc1ncnn2c([C@]3(C#N)O[C@H](COC(=O)Cc4ccccc4)[C@@H](OC(=O)[C@@H](N)C(C)(C)C)[C@H]3O)ccc12 [Compound 401, (2R,3S,4R,5R)-5-cyano-4-hydroxy-5-(4-isobutyramidopyrrolo[2,1-f][1,2,4]triazin-7-yl)-2-((2-phenylacetoxy)methyl)tetrahydrofuran-3-yl (S)-2-amino-3,3-dimethylbutanoate] | – | – | – | 3.8 | 15.3 | 4.1 |
| CC(=O)OC[C@H]1O[C@@](C#N)(c2ccc3c(N)ncnn23)[C@H](O)[C@@H]1OC(=O)C(C)C [Compound 54, (2R,3S,4R,5R)-2-(acetoxymethyl)-5-(4-aminopyrrolo[2,1-f][1,2,4]triazin-7-yl)-5-cyano-4-hydroxytetrahydrofuran-3-yl isobutyrate] | 2.6 | 2.4 | 0.94 | – | – | – |
| N#C[C@@]1(c2ccc3c(N)ncnn23)O[C@H](COC(=O)CC2(N)CCCCC2)[C@@H](O)[C@H]1O [Compound 286, ((2R,3S,4R,5R)-5-(4-aminopyrrolo[2,1-f][1,2,4]triazin-7-yl)-5-cyano-3,4-dihydroxytetrahydrofuran-2-yl)methyl 2-(1-aminocyclohexyl)acetate] | 0.01 | 0.4 | 67 | – | – | – |
| CCCC(=O)Nc1ncnn2c([C@]3(C#N)O[C@H](COC(=O)Cc4ccccc4)[C@@H](OC(=O)[C@@H](N)C(C)C)[C@H]3O)ccc12 [Compound 346, (2R,3S,4R,5R)-5-(4-butyramidopyrrolo[2,1-f][1,2,4]triazin-7-yl)-5-cyano-4-hydroxy-2-((2-phenylacetoxy)methyl)tetrahydrofuran-3-yl L-valinate] | – | – | – | 1.6 | 9 | 5.7 |
| CC(C)(C)[C@@H](N)C(=O)OC[C@H]1O[C@@](C#N)(c2ccc3c(N)ncnn23)[C@H](O)[C@@H]1O [Compound 411, ((2R,3S,4R,5R)-5-(4-aminopyrrolo[2,1-f][1,2,4]triazin-7-yl)-5-cyano-3,4-dihydroxytetrahydrofuran-2-yl)methyl (R)-2-amino-3,3-dimethylbutanoate] | 0.12 | 2.5 | 20.7 | – | – | – |
| CC(C)[C@H](N)C(=O)Nc1ncnn2c([C@]3(C#N)O[C@H](CO)[C@@H](OC(=O)CC4CCCCC4)[C@H]3O)ccc12 [Compound 139, (2R,3S,4R,5R)-5-(4-((S)-2-amino-3-methylbutanamido)pyrrolo[2,1-f][1,2,4]triazin-7-yl)-5-cyano-4-hydroxy-2-(hydroxymethyl)tetrahydrofuran-3-yl 2-cyclohexylacetate] | 0.18 | 6.1 | 34 | – | – | – |
| CCCCOC(=O)Nc1ncnn2c([C@]3(C#N)O[C@H](COC(=O)C(C)(C)C4CCCCC4)[C@@H](O)[C@H]3O)ccc12 [Compound 379, ((2R,3S,4R,5R)-5-(4-((butoxycarbonyl)amino)pyrrolo[2,1-f][1,2,4]triazin-7-yl)-5-cyano-3,4-dihydroxytetrahydrofuran-2-yl)methyl 2-cyclohexyl-2-methylpropanoate] | 1.6 | 2.5 | 1.6 | – | – | – |
